The results in this text go back to patent publication EP2518159A1, “Method for determining the neurodevelopmental toxicity of a compound in vitro” (priority 2011, dated 2012).

Holding throughout (details): ES-D3 neural differentiation culture, exposed from day 3, harvested on day 4 (24h exposure); relative to DMSO control (1 = unchanged); 25 nM MeHg, 100 µM cyproconazole, 1000 µM valproic acid, 25 µM hexaconazole
For data set [1], the system named is Shisa6. Nature of the data set: Gene expression change of Shisa6 in neural differentiation culture of embryonic stem cells (Affymetrix microarray).
Method: (§1) Murine embryonic stem cells (ESC) (ES-D3, ATCC, Rockville, MD, USA) were routinely subcultured every 2-3 days and grown as a monolayer in CM supplemented with leukemia inhibiting factor (LIF) (Chemicon, Temecula, CA, USA) at a final concentration of 1000 units/ml. The cells were maintained in a humidified atmosphere at 37°C and 5% CO2.
(§2) Differentiation of ESC into the neural lineage was carried out as described earlier (Theunissen et al., 2010). In brief, stem cell suspensions (3.75×10^4 cells/ml) were placed on ice before the initiation of the culture. Drops (20µl) containing 750 cells in CM were placed onto the inner side of the lid of a 90 cm Petri dish filled with phosphate-buffered saline (PBS) (Gibco BRL, Gaithersburg, MD) and incubated at 37 °C, 90% relative humidity and 5% CO2. After 3 days of hanging drop culture embryoid bodies (EB) had formed and were subsequently transferred to 60mm bacterial Petri dishes (Greiner Bio-one, Frickenhausen, Germany) containing CM supplemented with 0.5 µM retinoic acid (RA). On day 5, EB were plated on laminin (Roche, Basel, Switzerland) coated dishes (Corning Incorporated, Corning, NY, USA) in LS medium supplemented with 2.5 ug/ml fibronectin (Invitrogen, Carlsbad, CA, USA). One day later, on day 6, the LS medium was replaced by ITS medium. On day 7, EB were washed with phosphate buffered saline (PBS) (Gibco BRL, Gaithersburg, MD, USA) and incubated in cell dissociation buffer (Gibco BRL, Gaithersburg, MD, USA) for 3 minutes. Then EB were carefully detached from each Petri dish without dissociating the EBs and the entire content was replated on poly-L-ornithine (Sigma-Aldrich, Zwijndrecht, The Netherlands) and laminin coated dish in N2 medium supplemented with 10 ng/ml basic fibroblast growth factor (bFGF) (Srtathmann-Biotec AG, Englewood, CO, USA). The N2 medium supplemented with bFGF was replaced every other day for 7 days.
(§3) Control differentiation cultures were harvested on culture days 3, 4 and 5 (8 replicates per group). Differentiation cultures were exposed to the 3 neurodevelopmental toxicants and controls from day 3 onwards and harvested on day 4 (24h exposure) (8 replicates per group). Cells (-40-50 EB/sample) were directly collected in RNA Protect (Qiagen Benelux, Venlo, The Netherlands) to stabilize RNA, and total RNA was purified using the Qiagen RNEasy Plus Mini Kit (Qiagen Benelux, Venlo, The Netherlands) following the manufacturer's instructions. RNA quantity was determined using the NanoDrop Spectophotometer (Isogen Lifescience, de Meern, The Netherlands). RNA integrity was assessed on the 2100 Bioanalyzer (Agilent, Santa Clara, CA, USA) using the RNA 6000 Nano Chip Kit (Agilent, Santa Clara, CA, USA), and good quality RNA was used for gene expression analysis (RNA integrity number (RIN) > 8.0).
The test system of data set [2] is Car4. Nature of the data set: Gene expression change of Car4 in neural differentiation culture of embryonic stem cells (Affymetrix microarray).
Method: as §1, §2, §3
The subject of data set [3] is Emilin2. The data set can be described thus: Gene expression change of Emilin2 in neural differentiation culture of embryonic stem cells (Affymetrix microarray).
Method: as §1, §2, §3

For the compound `CC(C1CC1)C(O)(Cn1cncn1)c1ccc(Cl)cc1` (stereo not drawn) [Cyp, Cyproconazole], in data set [1], the “Ratio, gene expression change Shisa6” value worked out at 1.228. Besides, in data set [2], the “Ratio, gene expression change Car4” value is 0.777. Moreover, the “Ratio, gene expression change Emilin2” value in data set [3] is 1.270.
In the case of `CCCCC(O)(Cn1cncn1)c1ccc(Cl)cc1Cl` (stereo not drawn) [Hex, Hexaconazole], in data set [1], the “Ratio, gene expression change Shisa6” value was 1.096. For the same compound, the “Ratio, gene expression change Car4” value in data set [2] came to 0.936. For the same compound, in data set [3], the “Ratio, gene expression change Emilin2” value was 1.185.
Consider `[CH3][Hg][Cl]` [MeHg, Methylmercury chloride], for which the “Ratio, gene expression change Shisa6” value in data set [1] is on record as 1.380. Also, the “Ratio, gene expression change Car4” value in data set [2] is recorded as 0.686. The “Ratio, gene expression change Emilin2” value in data set [3] is 1.351.
The matching figures for `CCCC(CCC)C(=O)[O-].[Na+]` [VPA, Valproic acid sodium salt]: 0.752, 1.373 and 2.063.
